Entries after “also recorded” stand apart in the source; their conditions may differ.
How the values were obtained:
[1] = system: 1411HP germ cell tumor xenografts; test: Nude mouse xenograft model of resistant 1411HP; type: in vivo; conditions: 60 mg/kg peroral; 24 h
[2] = system: MCF-7/Topo breast carcinoma cells; test: MTT cell growth inhibition, MCF-7/Topo; type: cell-based, human; conditions: MCF-7/Topo (BCRP+)
Method: The effects of the compounds 5b, 6b, 8a, and 8e according to the present invention and of the reference compound 25f (Wang et al., J. Med. Chem. 2002, 45, 1697-1711) on cells of the following human tumor cell lines were evaluated: 518A2 melanoma, HL-60 leukemia, HT-29 colon carcinoma, KB-V1/Vbl cervical carcinoma, and MCF-7/Topo breast carcinoma.
The HL-60 cells were obtained from the German Collection of Biological Material (DSMZ), Braunschweig, Germany; the human 518A2 melanoma cells as well as the testicular germ cell tumor cell lines H12.1 and 1411HP were cultured in the department of oncology and hematology, Medical Faculty of the Martin-Luther University, Halle, Germany; the KBV1/Vbl and the MCF-7/Topo cells were obtained from the Institute of Pharmacy of the University Regensburg, Germany; and the colon HT-29 cells from the University Hospital Erlangen, Germany. The HL-60 and the HT-29 cells were grown in RPMI-1640 medium supplemented with 10% fetal calf serum (FCS), 100 IU/mL penicillin G, 100 μg/mL streptomycin sulfate, 0.25 μg/mL amphotericin B and 250 μg/mL gentamycine (all from Gibco, Egenstein, Germany). The 518A2 and the KB-V1/Vbl cells were cultured in Dulbecco's Modified Eagle Medium (D-MEM, Gibco) containing 10% FCS, 100 IU/mL penicillin G, 100 μg/mL streptomycin sulfate, 0.25 μg/mL amphotericin B and 250 μg/mL gentamycine. The MCF-7/Topo cells were grown in E-MEM medium (Sigma) supplemented with 2.2 g/L NaHCO3, 110 mg/L sodium pyruvate and 5% FCS. The cells were maintained in a moisture-saturated atmosphere (5% CO2) at 37° C. in 75-mL culture flasks (Nunc, Wiesbaden, Germany). They were serially passaged following trypsinisation by 0.05% trypsin/0.02% EDTA (PAA laboratories, Clbe, Germany). Mycoplasma contamination was routinely monitored, and only mycoplasma-free cultures were used.
MTT [3-(4,5-dimethylthiazol-2-yl)-2,5-diphenyltetrazolium bromide](ABCR) was used to identify viable cells which reduce it to a violet formazan (Mosmann, J. Immunol. Methods 1983, 65, 55-63). HL-60 leukemia cells (5×10^5/mL), and cells (5×10^4/mL) of 518A2 melanoma, HT-29 colon, KB-V1/Vbl cervix and MCF-7/Topo breast carcinoma were seeded out in 96-well tissue culture plates and cultured for 24 h. Incubation (5% CO2, 95% humidity, 37° C.) of the cells following treatment with the test compounds was continued for 24, 48 or 72 h. Blank and solvent controls were treated identically. […] The microplates were gently shaken in the dark for 30 min and absorbance at 570 nm and 630 nm (background) was measured with an ELISA plate reader. All experiments were carried out in quadruplicate; the percentage of viable cells was calculated as the mean±SD with controls set to 100%.

[3] = system: vascular system of a fertilized chicken embryo; test: CAM assay; type: in vivo; conditions: 10 nmol applied on the embryonal vessels; up to three days
Method: Compounds of the present invention were tested for anti-angiogenic and vasculature disrupting properties using the CAM assay. In this test the vascular system of a fertilized chicken embryo is used as a model (Wilting et al., Anat. Embryol. 1991, 183, 259-271).
Fertilized chicken eggs received from a nearby farm directly after laying have been incubated at a temperature of 36-38° C. and a relative humidity of 60%. During the growth the eggs have been held in an inclined position and turned from time to time in order to avoid an adherence to the shell. After four days each embryo was transferred into a cavity created by fixing a thin plastic foil on top of a cup and covered. This was done by opening the shell at the flat end where the air sac resides and letting the content slip out. There the growth continued for another 2-4 days until the first blood vessels became visible. Then 10 nmol of the substance to be tested (in 10 μL PBS with 1% DMF) have been applied directly on the embryonal vessels. As a reference PBS was used. Finally incubation continued for up to another three days (Dugan et al., Anat. Rec. 1991, 229, 125-128; Fisher, Tested studies for laboratory teaching 1993, 5, 105-115).

[4] = Solubility in physiological saline solution; type: physicochemical; conditions: saline or isotonic, read-out: concentration achieved in physiological saline solution
Method: (§1) For the biotests compound 5b was dissolved in physiological saline solution. […] Customarily, in vivo applications to animals require only concentrations up to 3 mM. In order to check the chemical stability of such solutions of 5b they were stored for one month and subsequently used in in vitro tests alongside freshly prepared solutions of the same concentrations of 5b.

[5] = system: H12.1 germ cell tumor cell line; test: SRB-cytotoxicity assay, H12.1; type: cell-based; conditions: Homo sapiens, 96 h
Method: The cytotoxic activity of 5b was established by standard colorimetric tests (SRB- and MTT-assays) against various tumor cell lines of different entities. For the SRB cytotoxicity assay, dose-response curves of the testicular germ cell tumor cell lines exposed to drug concentrations of 0.001-10 μM were established using the sulforhodamine-B (SRB) microcuiture colorimetric assay (Papazisis et al. Optimization of the sulforhodamine B colorimetric assay. J. Immunol. Methods 1997, 208, 151-158) and performed as described in: Müller et al. Failure of activation of caspase-9 induces a higher threshold for apoptosis and cisplatin resistance in testicular cancer. Cancer Res. 2003, 63, 513-521. Briefly, cells were seeded into 96-well plates on day 0, at cell densities previously determined to ensure exponential cell growth during the period of the experiment. On day 1, cells were treated with the drugs dissolved in medium to give the appropriate concentrations for indicated times and the percentage of surviving cells relative to untreated controls was determined on day 5.

[6] = Chemical stability of solutions stored for one month, retested in vitro; type: physicochemical; conditions: solution stored for one month vs freshly prepared; tubulin polymerization and SRB assays
Method: as §1

Row | Compound | vascular disrupting effect after oral administration [1] | cytotoxicity / efficacy (comparison) [2] | effect on embryonal blood vessels [3] | solubility [4] [mM] | IC50 [5] [nM] | chemical stability in solution (activity retained) [6]
1 | COc1ccc(-c2c(-c3cc(Br)c(OC)c(OC)c3)ncn2C)cc1N [compound 6b, 1-methyl-5-(3-amino-4-methoxyphenyl)-4-(3-bromo-4,5-dimethoxyphenyl)-imidazole] | occurred to same extent as seen after i.p. application | noticeably less active but still superior to the known imidazole 25f | leaving regular vasculature in chicken embryos (CAM assay) alone |  |  | 
2 | COc1ccc(-c2c(-c3cc(Cl)c(OC)c(OC)c3)ncn2C)cc1N [compound 5b, 1-methyl-5-(3-amino-4-methoxyphenyl)-4-(3-chloro-4,5-dimethoxyphenyl)-imidazole] |  | noticeably less active but still superior to the known imidazole 25f | dramatic vessel shrinkage within 24 h after treatment and to a complete degradation of the vascular system within three days | ≥ 10 | 30 to 50 | No loss of activity; also recorded: persistence of efficacy; also recorded: high, unattenuated activity and efficacy

From US8980933B2, “Combretastatin analogs for use in the treatment of cancer” (Universitat Bayreuth, priority 2010, dated 2015)
